assay: in vitro; settings: human, hela cells, % viability

Point of comparison: `COCCOc1cccc(OCCOc2nccnc2N2CCNC[C@H]2C)c1` [CBK048435], viability at 28.5 h, 10 µM 104%. Against it:
- O=C(c1ccc2ccccc2c1)C12CN3CN(CN(C3)C1)C2 [CBK009031] — lower, 89.1%
- O=C(O)Cc1cnnn1-c1ccc(Cl)cc1Cl [CBK288035] — lower, 86%
- O=C(CSc1nnc(-c2ccccc2O)n1-c1ccccc1)N1CCc2ccccc21 [CBK268097] — lower, 100%
- COc1cccc(CNC(C)(C)CO)c1OCc1ccc(Cl)cc1 [CBK266552C] — lower, 102%
- COc1ccc(Cn2c(-c3ccc(OC)c(O)c3)nc3ccccc32)cc1O [CBK263370] — higher, 108%
- CC(=O)Nc1sc2c(c1-c1nc3ccccc3s1)CCN(C(C)C)C2 [CBK211288] — lower, 3.98%
- Cn1ccc(C(=O)NC(Cc2ccsc2)c2cccnc2)n1 (centres unmarked) [CBK285117] — higher, 107%
- Cc1ccccc1-c1cc(C(=O)NCCCn2cc(Br)cn2)c2ccccc2n1 [CBK267758] — lower, 97.8%
- c1cncc(COc2ccnc(N3CCCN(CCN4CCOCC4)CC3)n2)c1 [CBK084122] — lower, 88.5%
- O=C(CSc1ccc(Cl)cc1)Nc1ccc(S(=O)(=O)N2CCOCC2)cc1 [CBK262723] — lower, 95%
- Cc1nc2c(OCc3ccccc3)cccn2c1N(C)C(=O)C1CCCCC1 [CBK147884] — lower, 96.2%
- O=C(Cc1ccccc1)N1CCN(S(=O)(=O)N2CCCCC2)CC1 [CBK269097] — lower, 85.2%
- CCCc1[nH]n(CCc2ccccc2)c(=O)c1Cc1c(Cl)cccc1Cl [CBK112499] — lower, 99.8%
- CCC(C)N1CCN(S(=O)(=O)c2ccccc2[N+](=O)[O-])CC1 (centres unmarked) [CBK264270G] — lower, 97.2%
- Nc1ccc(C(=O)Nc2ccc(Nc3cc(-c4ccccc4OCc4ccccc4)ncn3)cc2)cc1 [CBK091092] — lower, 94.4%
- COc1nccnc1-c1cnn(Cc2ccccc2)c1 [CBK107090] — lower, 101%
- FC(F)(F)c1cccnc1OCCNc1ccccc1 [CBK115822] — lower, 98.7%
- COc1ccc(S(=O)(=O)Nc2nccnc2-c2ccc3[nH]ccc3c2)cc1 [CBK050805] — lower, 91.6%
- O=C(CN1CCC(c2ccc(F)cc2)CC1)N1CCCC1 [CBK283502] — lower, 98.7%
- O=c1[nH]c2c(cc1CNc1cccc(O)c1)c(-c1cccc(F)c1)nn2-c1ccccc1 [CBK286463] — lower, 93%
- O=C(Cn1cc(C(=O)NC2CCCCC2)ccc1=O)NCC1(c2ccccc2Cl)CC1 [CBK286101] — lower, 86.4%
- Cc1cccc(-c2ccc3c(c2)C(=O)N2CC[C@H](NC(=O)N4CCOCC4)[C@H]2C(=O)N3)c1C [CBK289347] — lower, 88.1%
- CC(C)[C@H](NC(=O)Cc1n[nH]c(=O)c2ccccc12)C(=O)O [CBK286607] — lower, 95.2%
- CS(=O)(=O)N1CCN(c2nc(C(F)(F)F)nc3ccsc23)CC1 [CBK304594] — lower, 91.1%
- NS(=O)(=O)c1ccc(NC(=O)CCCOc2ccc(Cl)cc2Cl)cc1 [CBK261536] — the same, 104%
- CC(=O)Nc1ccc(C(=O)N2CCCC2c2cccc(Cc3ccc(Cl)cc3)n2)cc1 (centres unmarked) [CBK286144] — higher, 110%
- CC1(C(=O)O)NC(c2ccccc2O)C2C(=O)N(c3ccccc3[N+](=O)[O-])C(=O)C21 (centres unmarked) [CBK264979] — higher, 107%
- CC(CNC(=O)Cn1nc(C(F)(F)F)c2c1CCC2)N1CCCC1 (centres unmarked) [CBK282212] — lower, 89.9%
- COc1ccc(-c2cnc(Nc3ccc(N4CCOCC4)cc3)c3nccn23)cn1 [CBK091238] — lower, 92%
- CN(C(=O)c1ccco1)c1nc2c(s1)CCc1c-2cnn1C [CBK281928] — lower, 81.2%
- C=Cn1ncc(CN2CCCC(O)(c3ccc(F)cc3)CC2)c1C (centres unmarked) [CBK284837] — lower, 89.3%
- CC(C)[C@H](CO)NC(=O)c1cnc(-c2ccccc2)c(-c2ccncc2)c1 [CBK036691] — higher, 115%
- Cc1cc(NC(=O)CCn2cc(Br)cn2)no1 [CBK304326] — lower, 102%
- O=C(CC1Sc2ccccc2NC1=O)Nc1ccc(C(F)(F)F)cc1 (centres unmarked) [CBK287585] — lower, 88.6%
- COc1ccc(C(=O)CCC(=O)Nc2cccnc2)c(OC)c1 [CBK266923] — higher, 105%
- Cc1nc2nc(N)nn2c(C)c1CCC(=O)OCc1cccc(C#N)c1 [CBK306083] — lower, 88.1%
- COC(=O)Cn1c(=O)c2c(nc3oc(C(C)(C)C)cn32)n(C)c1=O [CBK306029] — lower, 84.5%
- Cc1cc(C)nc(N(C#N)CC(=O)N2c3ccccc3CCc3ccccc32)n1 [CBK266509] — higher, 112%
- O=C(CSc1nnc(-c2ccncc2)n1-c1ccccc1)N/N=C/c1c[nH]c2ccccc12 [CBK262776] — lower, 90.5%
- CCCn1cc(NC(=O)NCc2cc3c(cc2OC)CCC3)nn1 [CBK306614] — lower, 86.4%
- CNC(=O)c1sc2ccccc2c1C1CN(Cc2cn(C)c3cc(OC)ccc23)CCO1 (centres unmarked) [CBK286087] — lower, 91.9%
- Cc1ccc2n1CCN(C(=O)c1cc(-c3ccccn3)n[nH]1)C2C(C)C (centres unmarked) [CBK282447] — lower, 101%
- c1ccc(-c2n[nH]c(-c3ccncc3)c2-c2nc3ccccc3[nH]2)cc1 [CBK262180] — lower, 88%
- CC(C)(C)OC(=O)N1CCN(c2ccc(C(F)(F)F)c(Cl)n2)CC1 [CBK003030] — lower, 88.9%
- CCC(CO)Nc1cncc(-c2cc(OC)c(OC)c(OC)c2)n1 (centres unmarked) [CBK037882] — lower, 98.9%
- COc1ccc(C(=O)N[C@H]2CCN3C(=O)c4ccc(Cl)cc4NC(=O)[C@@H]3C2)cc1 [CBK289564] — lower, 84.5%
- Cn1ccc(C2CCCCCN2C(=O)c2c(Cl)cnn2C)n1 (centres unmarked) [CBK284914] — lower, 102%
- CCOC(=O)N1CCC(NS(=O)(=O)c2cc(Br)ccc2OC)CC1 [CBK045463] — higher, 115%
- COc1cnc(C(=O)NCc2ccccc2Cl)cc1O [CBK287993] — lower, 84.6%
- COc1ccc(Cn2nc(NC(=O)Nc3ccc(N(C)C)cc3)c3ccccc32)cc1 [CBK048529] — lower, 90%
- NS(=O)(=O)c1ccc(C(=O)NCCc2c[nH]c3ccc(Cl)cc23)cc1 [CBK159780] — lower, 95.2%
- CC(=O)N1CCc2sccc2C1c1ccccc1NCc1ccoc1 (centres unmarked) [CBK286432] — lower, 91.6%
- CN1C(=O)COc2ccccc2C/C=C/C[C@@H]2[C@H]1CCCN2C(=O)CNS(C)(=O)=O [CBK292079] — lower, 87.7%
- NS(=O)(=O)c1ccc(/N=C/c2cccc(O)c2O)cc1 [CBK261533] — lower, 87.8%
- Cc1cc(Oc2ccccc2)nc(NCc2ccccc2)n1 [CBK003557] — lower, 99.1%
- CCN(CC)C(=O)CN1CCC(Oc2nccnc2OCc2cc(C)on2)CC1 [CBK082959T] — lower, 102%
- CCCCN(C)c1c(C)nc2c(OCc3ccc(S(=O)(=O)N(C)C)cc3)cccn12 [CBK147189] — lower, 96.2%
- CC(C)CC(=O)N1CCc2c([nH]c3ccccc23)C12CCN(Cc1ccccc1)C2 (centres unmarked) [CBK059459] — lower, 81.6%
- CC(C)(N)CC(=O)N1CCN(c2ncccn2)CC1 [CBK144532] — lower, 91.3%
- Cc1n[nH]c(O)c1C(c1ccc(OC(=O)c2c(F)cccc2F)cc1)c1c(C)n[nH]c1O [CBK265136] — lower, 101%
- CN(CC1(C)COC1)C(=O)c1ccc2c(c1)ncn2C1CC1 [CBK281718] — lower, 86.8%
- Cc1ccc(CNC(=O)c2nnc(C(=O)Nc3cccc(Cl)c3)s2)o1 [CBK294404] — lower, 95.2%
- Cc1ccccc1N1C(=O)c2ccc(Br)cc2C1=O [CBK022430] — lower, 90.9%
- Cc1nn(C(C)CC(=O)O)c(C)c1Br (centres unmarked) [CBK269138] — lower, 91.7%
- Cc1cn([C@H]2C[C@@H](O)[C@@H](CI)O2)c(=O)[nH]c1=O [CBK201197] — lower, 96.9%
- CC(=O)N1C[C@@H](c2cccc(C)c2)[C@@H]2CN(Cc3ccncc3)CC[C@@H]21 [CBK283370] — lower, 96.1%
- CC12CCC(C(=O)Nc3ccccc3)(OC1=O)C2(C)C (centres unmarked) [CBK018129] — lower, 96.4%
- CC(C)(C)OC(=O)N1CCN(CCOc2ccc(NC(=O)OCc3ccccc3)cc2F)CC1 [CBK016854] — higher, 108%
- CC[C@H]1CN(C(C)=O)CC[C@H]1CC(=O)NCc1ccc2c(c1)OCO2 [CBK289131] — lower, 89.2%
- c1ccc(CN2CCC(NCc3ccco3)C(c3ccccc3)C2)cc1 (centres unmarked) [CBK286167] — lower, 95.4%
- Cn1cc([C@@H]2CN(Cc3ccc(F)c(F)c3)C[C@H]2N)c2ccncc21 [CBK285179] — lower, 88.3%
- O=C(C1=C(O)C(=O)N(Cc2cccnc2)C1c1cccnc1)c1cccs1 (centres unmarked) [CBK264547] — higher, 119%
- Cc1ccccc1-c1ccc(C(=O)NC2CCCCC2)c(NCc2cccnc2)n1 [CBK076159] — lower, 90.5%
- O=S(=O)(NCc1ccc(CNS(=O)(=O)c2ccccc2)cc1)c1ccccc1 [CBK265471] — higher, 113%
- O=C(O)c1cccnc1SC1CC(=O)N(Cc2ccccc2)C1=O (centres unmarked) [CBK263375] — higher, 119%
- O=C(NCc1ccccc1F)c1cccc(CN2C(=O)CSC2=O)c1 [CBK296730] — lower, 100%
- O=C(Cc1coc2ccc3ccccc3c12)NNC(=O)c1ccccc1[N+](=O)[O-] [CBK268763] — lower, 90.6%
- O=S(=O)(N1CCOCC1)N1CCCN(S(=O)(=O)N2CCOCC2)CC1 [CBK269068] — lower, 103%
- CCOC(=O)N1CCN(Cc2ccc(O)c(OC)c2)CC1 [CBK261873] — lower, 98.5%
- COc1ccc2c(c1)-c1c(ss/c1=N\c1ccc(S(N)(=O)=O)cc1)C(C)(C)N2 [CBK263339] — lower, 88.7%
- CC1=C[C@@H](CO)[C@H](C(C)C)C[C@H]1Cc1nnc(-c2ccncc2)o1 [CBK289222] — higher, 110%
- CCc1nc2ccc(C(=O)N3CCN(C(=O)c4ccco4)CC3)cn2c1N(C)Cc1ccncc1 [CBK145635] — lower, 94.5%
- CC(C)CNC(=O)c1cc([C@H]2CC[C@H](CNC(=O)c3cnn(C)c3)CC2)nc2ccccc12 [CBK285867] — higher, 114%
- O=C1N/C(=N/c2ccccc2Cl)S/C1=C/c1ccc(-c2ccccc2Cl)o1 [CBK067752] — lower, 89.3%
- CCCC(=O)N1CCC(c2nc3ccc(F)cc3cc2N)CC1 [CBK284655] — lower, 92.1%
